From patent publication US20250052744A1, “Dyes and Uses Thereof” (The University of Liverpool, priority 2021, published 2025)

Columns and labels:
Test in all cases: Qualitative dye staining on agarose pads (EVOS M7000)
Format in all cases: cell-based
Design in all cases: key to Relative fluorescent intensity: Very high: If the cells looked twice as big in the fluorescent channel, it was marked as having “very high” relative fluorescent intensity; High: if the cells looked bigger in the fluorescent channel, it was marked as having “high” relative fluorescent intensity; Medium: If the cells looked almost the same size in the fluorescent channel and the bright field, it was marked as having “medium” relative fluorescent intensity; Low: If the cells looked smaller in the fluorescent channel as compared to the brightfield but still the whole cell was visible, it was marked as having “low” relative fluorescent intensity; Negligible: If only a few traces of a cell was visible in the fluorescent channel, it was marked as having “negligible” relative fluorescent intensity
Enterococcus spp. = conditions: Table 6 thresholds, Entercoccus, DiSC3(5) 3 μM, SYBR Green I 10×, SYTO 13 3 μM, FM4-64 15 μM
Description: (§1) An overnight culture was prepared by inoculating a bacterial colony in approximately 5 ml of Urine and incubating the culture in an orbital shaker at 37° C.
(§2) The following media and materials were utilised: Cation-adjusted Mueller Hinton broth (MHB); Phosphate Buffered Saline (PBS); Membrane staining dye—FM4-64 (1.5 mM); Live cell staining dye—DiSC3(5) (1 mM); DNA staining dye—SYBR Green (1000×); DNA staining dye—SYTO 13 (0.5 mM); Ultrapure Agarose; Parafilm; Glass slides and coverslips; Scalpel; and EVOS M7000 fluorescent microscope.
(§3) A pre-cut parafilm or a coverslip was used as a guide and 22 mm×22 mm squares cut from parafilm. A square was cut out of the centre of the parafilm (approximately 10 mm×10 mm). The centre of the cut-out was discarded. Two parafilm gaskets were placed onto a cleaned glass slide. The glass slide was then placed on a dry bath set to 56° C. so that the parafilm adhered to the glass slide. The glass slide was then kept on the dry bath. Using a microwave, ultrapure agarose was dissolved in PBS at a concentration of 1.2%. The agarose solution was kept on a dry bath set at 56° C. 60 μl of the agarose solution was pipetted in the centre of the parafilm gaskets. A coverslip was then placed over the gaskets without applying pressure on the coverslip. The slide was then placed on a cool surface and left to solidify for 1-2 minutes. The coverslips were then gently lifted off the agarose pads.
(§4) In a first Eppendorf, 15 μl of FM4-64 and 6 μl of SYTO 13 was added and in a second Eppendorf 10 μl of SYBR Green and 3 μl of DiSC3(5) was added. Depending on the bacterial growth in urine, an appropriate concentration of the bacterial culture was placed in the two Eppendorfs (final bacterial concentration 10^6 CFU/ml). MHB was added so as to achieve a final volume of 1 ml. Final concentrations of the dyes in the sample was as follows: DiSC3(5): 3 μM; SYBR Green I: 10× (originally supplied as 10,000×); SYTO 13: 3 μM; and FM4-64: 15 μM
(§5) 4 μl of the contents of each Eppendorf were deposited on one agarose pad and the cells distributed across the agar surface by tilting the slide. The slide was left to dry for approximately 1 minute. A coverslip was then placed on top of the agarose pad. The slide was placed inside the microscope and incubated at 37° C. for 10 minutes. Using different light filters for each dye, an image of each pad at 40× magnification on an EVOS M7000 fluorescent microscope was captured. Eight images for each agarose pad was recorded (i.e. 8 each for brightfield and 2 fluorescent channels). For each agarose pad, 24 images were recorded. This corresponded to 48 images in total for each bacterial strain (2 agarose pads per strain). Table A below was used to take the images using the correct fluorescent channel and intensity (for imagining on any other instrument, the LED intensity will need to be normalised against the EVOS M7000).
(§6) To qualitatively calculate the relative fluorescent intensities, cell size was compared between brightfield and the fluorescent channel for a given fluorescent dye. If the cells are very fluorescent, they will appear bigger in the fluorescent channel as compared to the bright field. For our qualitative measurements, if the cells looked bigger in the fluorescent channel, it was marked as having “high” relative fluorescent intensity. If the cells looked twice as big in the fluorescent channel, it was marked as having “very high” relative fluorescent intensity. If the cells looked almost the same size in the fluorescent channel and the bright field, it was marked as having “medium” relative fluorescent intensity. If the cells looked smaller in the fluorescent channel as compared to the brightfield but still the whole cell was visible, it was marked as having “low” relative fluorescent intensity. If only a few traces of a cell was visible in the fluorescent channel, it was marked as having “negligible” relative fluorescent intensity.

Proteus = conditions: Table 6 thresholds, DiSC3(5) 3 μM, SYBR Green I 10×, SYTO 13 3 μM, FM4-64 15 μM
Description: as §1, §2, §3, §4, §5, §6

Staphylococcus aureus = conditions: DiSC3(5) 3 μM, SYBR Green I 10×, SYTO 13 3 μM, FM4-64 15 μM
Description: as §1, §2, §3, §4, §5, §6

[1] = Table 6 thresholds, Staphylococcus aureus
[2] = Table 7 commercial strain S. Aureus NCTC 9369
[3] = Table 7 commercial strain S. aureus NCTC 8532
[4] = Table 8 sample Staphylococcus aureus (041)
[5] = Table 8 sample Staphylococcus aureus (042)
[6] = Table 8 sample Staphylococcus aureus (043)

| Structure (SMILES) | Percentage of cells stained (Enterococcus spp.) | Relative fluorescent intensity (Enterococcus spp.) | Percentage of cells stained (Proteus) | Relative fluorescent intensity (Proteus) | Percentage of cells stained (Staphylococcus aureus; [1]) | Relative fluorescent intensity (Staphylococcus aureus; [1]) | Percentage of cells stained (Staphylococcus aureus; [2]) | Relative fluorescent intensity (Staphylococcus aureus; [2]) | Percentage of cells stained (Staphylococcus aureus; [3]) | Relative fluorescent intensity (Staphylococcus aureus; [3]) | Percentage of cells stained (Staphylococcus aureus; [4]) | Relative fluorescent intensity (Staphylococcus aureus; [4]) | Percentage of cells stained (Staphylococcus aureus; [5]) | Relative fluorescent intensity (Staphylococcus aureus; [5]) | Percentage of cells stained (Staphylococcus aureus; [6]) | Relative fluorescent intensity (Staphylococcus aureus; [6]) | Relative fluorescent intensity (Enterococcus spp.; listed as FM4-64) | Relative fluorescent intensity (Proteus; listed as FM4-64) | Relative fluorescent intensity (Enterococcus spp.; listed as SYBR Green) | Relative fluorescent intensity (Staphylococcus aureus; Table 6 thresholds, Staphylococcus aureus, listed as SYBR Green) |
| --- | --- | --- | --- | --- | --- | --- | --- | --- | --- | --- | --- | --- | --- | --- | --- | --- | --- | --- | --- | --- |
| CCCN1C(=CC=CC=Cc2sc3ccccc3[n+]2CCC)Sc2ccccc21.[I-] [DiSC3(5), 3,3′-Dipropylthiadicarbocyanine Iodide] | Half | low and Low | Half | Low-Medium | Almost all | high and High | Almost all | High | Almost all | High | Almost all | High | Almost all | High | Almost all | High | – | – | – | – |
| CCN(CC)c1ccc(C=CC=CC=Cc2cc[n+](CCC[N+](CC)(CC)CC)cc2)cc1.[Br-].[Br-] [FM 4-64, N-(3-Triethylammoniumpropyl)-4-(6-(4-(Diethylamino) Phenyl) Hexatrienyl) Pyridinium Dibromide] | Almost all | medium | Few | no staining or negligible | Almost all | Medium-high | Almost all | High | Almost all | Medium | Almost all | High | Almost all | Medium | Almost all | Medium | Medium | Negligible | – | – |
| CCCN(CCCN(C)C)c1cc(/C=C2/Sc3ccccc3N2C)c2ccccc2[n+]1-c1ccccc1 [SYBR Green I, N′,N′-dimethyl-N-[4-[(E)-(3-methyl-1,3-benzothiazol-2-ylidene)methyl]-1-phenylquinolin-1-ium-2-yl]-N-propylpropane-1,3-diamine] | Almost all | medium to high | Half | Low | Almost all | high | Almost all | High | Almost all | High | Almost all | High | Almost all | High | Almost all | High | – | – | Medium-High | High |
